From the NIST ThermoML archive (doi:10.1016/j.jct.2009.08.004) come the findings set out here.

The nature of the data set: mn = molality of the nth substance listed, in mol/kg. Particulars: 298.15 K, 101 kPa, Liquid, Pulse-echo method.

Numbers after ± are expanded uncertainties.

`NCC(=O)N[C@@H](CO)C(=O)NCC(=O)O` [glycyl-L-serylglycine] + O: the speed of sound – broadly, the propagation velocity of pressure waves in the medium – is, setting by setting: (m1 = 0.02692) 1499.5 ± 0.77 m/s; (m1 = 0.03696) 1500.6 ± 0.77 m/s; (m1 = 0.04335) 1501.3 ± 0.77 m/s; (m1 = 0.05037) 1502 ± 0.77 m/s; (m1 = 0.06228) 1503.2 ± 0.77 m/s.
